Results as given in patent US20250248973A1, “CANNABINOID RECEPTOR 1 ANTAGONISTS/INVERSE AGONISTS AND USES THEREOF” (Corbus Pharmaceuticals, Inc., priority 2022, published 2025).

Tests used:
[1] = target: Human CB1 Receptor-1b (hCB1b) (Homo sapiens (Human), UniProt P21554); experiment: hCB1b Gai cyclic AMP (cAMP) TR-FRET assay, antagonism of EC80 CP55940 with forskolin; assay type: cell-based; settings: hCB1b cells, 30 min pre-incubation, read-out: CB1b IC50
Procedure: (§1) Example 3. Biochemical Methods Human CB1 Receptor-1 (hCB1) and Human CB1 Receptor-1b (hCBib)
(§2) hCB1/hCB1 b Gai Cyclic AMP (cAMP) Assays: Cells were seeded in a 384-well plate at an appropriate density from frozen cells. The cAMP assays were performed according to the manufacturer's protocol using MULTISCREEN™ TR-FRET cAMP 1.0 No Wash Assay Kit. Cells (hCB1 or hCB1 b) were pre-incubated with customer compounds for 30 minutes at rt followed by addition of EC80 CP55940 concentration and Forskolin. Cells were then incubated for 20 minutes at 37C. The reaction was terminated by sequentially adding sequentially adding MULTISCREEN™ Eu-labeled cAMP and MULTISCREEN™ 650-labeled anti-cAMP antibody in lysis buffer. The plate was then incubated at rt for 30 minutes before reading fluorescent emissions at 620 nm and 665 with excitation at 314 nm on FlexStation III (Molecular Devices). The results are shown in Table 2 (“***” denotes an IC50<100 nM; “**” denotes an IC50 between 100 nM and 500 nM, and “*” denotes an IC50>500 nM).

[2] = target: Human CB1 Receptor-1 (hCB1) (Homo sapiens (Human), UniProt P21554); experiment: hCB1 Gai cyclic AMP (cAMP) TR-FRET assay, antagonism of EC80 CP55940 with forskolin; assay type: cell-based; settings: hCB1 cells, 30 min pre-incubation
Procedure: as §1, §2

Human CB1 Receptor-1 (hCB1), sequence (P21554 whole entry): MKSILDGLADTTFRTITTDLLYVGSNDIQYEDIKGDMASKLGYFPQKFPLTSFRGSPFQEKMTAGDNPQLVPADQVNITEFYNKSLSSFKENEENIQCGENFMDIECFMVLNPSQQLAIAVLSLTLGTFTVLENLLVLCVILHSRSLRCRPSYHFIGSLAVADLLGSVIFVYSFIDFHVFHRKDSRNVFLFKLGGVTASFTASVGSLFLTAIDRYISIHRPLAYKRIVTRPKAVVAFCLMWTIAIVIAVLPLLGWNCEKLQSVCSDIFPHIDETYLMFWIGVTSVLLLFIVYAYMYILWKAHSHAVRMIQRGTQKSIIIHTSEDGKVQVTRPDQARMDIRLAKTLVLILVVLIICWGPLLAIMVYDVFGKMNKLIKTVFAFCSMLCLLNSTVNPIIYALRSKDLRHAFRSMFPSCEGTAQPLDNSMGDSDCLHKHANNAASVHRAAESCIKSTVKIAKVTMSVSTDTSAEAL
Human CB1 Receptor-1b (hCB1b), sequence (P21554 other isoform, or with tags, fused parts or gaps): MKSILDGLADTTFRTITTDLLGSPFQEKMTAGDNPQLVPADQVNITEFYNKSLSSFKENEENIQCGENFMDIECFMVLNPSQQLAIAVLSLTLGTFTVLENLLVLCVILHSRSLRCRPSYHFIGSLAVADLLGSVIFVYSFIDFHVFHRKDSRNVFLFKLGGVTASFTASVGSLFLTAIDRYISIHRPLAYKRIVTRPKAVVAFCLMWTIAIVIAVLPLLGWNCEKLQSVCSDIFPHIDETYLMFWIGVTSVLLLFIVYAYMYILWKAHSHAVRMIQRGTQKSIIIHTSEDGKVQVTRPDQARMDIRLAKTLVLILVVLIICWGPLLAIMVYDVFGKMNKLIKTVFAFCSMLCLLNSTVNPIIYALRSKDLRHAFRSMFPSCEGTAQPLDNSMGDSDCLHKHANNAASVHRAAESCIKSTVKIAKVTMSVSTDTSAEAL

## NS(=O)(=O)[C@H]1C[C@@H](N/C(=N/S(=O)(=O)c2ccc(Cl)cc2)N2C[C@H](c3ccccc3)C(c3ccc(F)cc3)=N2)C1 (single isomer, unassigned) [Compound 129]
[1]
  IC50: > 500 nM
[2]
  IC50: > 500 nM

## NS(=O)(=O)[C@H]1CCN(/C(=N/S(=O)(=O)c2ccc(Cl)cc2)N2C[C@H](c3ccccc3)C(c3ccc(Cl)cc3)=N2)C1 (single isomer, unassigned) [Compound 135]
[1]
  IC50: > 500 nM
[2]
  IC50: > 500 nM

## C[C@H](CS(N)(=O)=O)N/C(=N\S(=O)(=O)c1ccc(C(F)(F)F)cc1)N1C[C@H](c2ccccc2)C(c2ccc(Cl)cc2)=N1 [Compound 23, (S,E)-3-(4-chlorophenyl)-4-phenyl-N-((R)-1-sulfamoylpropan-2-yl)-N′-((4-(trifluoromethyl)phenyl)sulfonyl)-4,5-dihydro-1H-pyrazole-1-carboximidamide]
[1]
  IC50: 100 to 500 nM
[2]
  IC50: 100 to 500 nM

## NS(=O)(=O)[C@H]1CC[C@H](N/C(=N/S(=O)(=O)c2ccc(Cl)cc2)N2C[C@H](c3ccccc3)C(c3ccc(F)cc3)=N2)C1 [Compound 151, (S,Z)-N′-((4-chlorophenyl)sulfonyl)-3-(4-fluorophenyl)-4-phenyl-N-((1S,3S)-3-sulfamoylcyclopentyl)-4,5-dihydro-1H-pyrazole-1-carboximidamide]
[1]
  IC50: < 100 nM
[2]
  IC50: 100 to 500 nM

## NS(=O)(=O)[C@@H]1CCN(/C(=N/S(=O)(=O)c2ccc(Cl)cc2)N2C[C@H](c3ccccc3)C(c3ccc(Cl)cc3)=N2)C1 (single isomer, unassigned) [Compound 136]
[1]
  IC50: > 500 nM
[2]
  IC50: > 500 nM

## C[C@H](CS(N)(=O)=O)N/C(=N\S(=O)(=O)c1ccc(Cl)cc1)N1C[C@H](c2ccccc2)C(c2ccc(F)cc2)=N1 [Compound 57, (S,E)-N′-((4-chlorophenyl)sulfonyl)-3-(4-fluorophenyl)-4-phenyl-N-((R)-1-sulfamoylpropan-2-yl)-4,5-dihydro-1H-pyrazole-1-carboximidamide]
[1]
  IC50: > 500 nM
[2]
  IC50: > 500 nM

## Cn1cnc(S(=O)(=O)N=C(NCCS(N)(=O)=O)N2C[C@H](c3ccccc3)C(c3ccc(Cl)cc3)=N2)c1 [Compound 67, (S)-3-(4-chlorophenyl)-N′-((1-methyl-1H-imidazol-4-yl)sulfonyl)-4-phenyl-N-(2-sulfamoylethyl)-4,5-dihydro-1H-pyrazole-1-carboximidamide]
[1]
  IC50: > 500 nM
[2]
  IC50: > 500 nM

## NS(=O)(=O)CCNC(=NS(=O)(=O)c1cccnc1)N1C[C@H](c2ccccc2)C(c2ccc(F)cc2)=N1 [Compound 69, (S)-3-(4-fluorophenyl)-4-phenyl-N′-(pyridin-3-ylsulfonyl)-N-(2-sulfamoylethyl)-4,5-dihydro-1H-pyrazole-1-carboximidamide]
[1]
  IC50: > 500 nM
[2]
  IC50: > 500 nM

## C[C@@H](CN/C(=N\S(=O)(=O)c1ccc(C(F)(F)F)cc1)N1C[C@H](c2ccccc2)C(c2ccc(Cl)cc2)=N1)S(N)(=O)=O [Compound 18, (S,E)-3-(4-chlorophenyl)-4-phenyl-N-((S)-2-sulfamoylpropyl)-N′-((4-(trifluoromethyl)phenyl)sulfonyl)-4,5-dihydro-1H-pyrazole-1-carboximidamide]
[1]
  IC50: 100 to 500 nM
[2]
  IC50: < 100 nM

## C[C@@H](CS(N)(=O)=O)N/C(=N\S(=O)(=O)c1ccc(Cl)cc1)N1CC(c2ccccc2)C(c2ccc(Cl)cc2)=N1 (stereo in doubt) [Compound 1, (R,E)-3-(4-chlorophenyl)-N′-((4-chlorophenyl)sulfonyl)-4-phenyl-N-((S)-1-sulfamoylpropan-2-yl)-4,5-dihydro-1H-pyrazole-1-carboximidamide]
[1]
  IC50: < 100 nM
[2]
  IC50: < 100 nM

## CN(CCS(N)(=O)=O)/C(=N/S(=O)(=O)c1ccc(Cl)cc1)N1C[C@H](c2ccccc2)C(c2ccc(Cl)cc2)=N1 [Compound 109, (S,Z)-3-(4-chlorophenyl)-N′-((4-chlorophenyl)sulfonyl)-N-methyl-4-phenyl-N-(2-sulfamoylethyl)-4,5-dihydro-1H-pyrazole-1-carboximidamide]
[1]
  IC50: > 500 nM
[2]
  IC50: > 500 nM

## NS(=O)(=O)NCCN/C(=N\S(=O)(=O)c1ccc(Cl)cc1)N1C[C@H](c2ccccc2)C(c2ccc(Cl)cc2)=N1 [Compound 183, (S,E)-3-(4-chlorophenyl)-N′-((4-chlorophenyl)sulfonyl)-4-phenyl-N-(2-(sulfamoylamino)ethyl)-4,5-dihydro-1H-pyrazole-1-carboximidamide]
[1]
  IC50: < 100 nM
[2]
  IC50: < 100 nM

## NS(=O)(=O)[C@H]1CC[C@H](N/C(=N/S(=O)(=O)c2ccc(Cl)cc2)N2C[C@H](c3ccccc3)C(c3ccc(F)cc3)=N2)CC1 (single isomer, unassigned) [Compound 125]
[1]
  IC50: 100 to 500 nM
[2]
  IC50: 100 to 500 nM

## NS(=O)(=O)[C@@H]1CC[C@@H](N/C(=N/S(=O)(=O)c2ccc(Cl)cc2)N2C[C@H](c3ccccc3)C(c3ccc(F)cc3)=N2)C1 [Compound 153, (S,Z)-N′-((4-chlorophenyl)sulfonyl)-3-(4-fluorophenyl)-4-phenyl-N-((1R,3R)-3-sulfamoylcyclopentyl)-4,5-dihydro-1H-pyrazole-1-carboximidamide]
[1]
  IC50: < 100 nM
[2]
  IC50: 100 to 500 nM

## NS(=O)(=O)[C@H]1CC[C@@H](N/C(=N/S(=O)(=O)c2ccc(Cl)cc2)N2C[C@H](c3ccccc3)C(c3ccc(Cl)cc3)=N2)CC1 (single isomer, unassigned) [Compound 119]
[1]
  IC50: > 500 nM
[2]
  IC50: > 500 nM

## CN1CCN(S(=O)(=O)CCN/C(=N\S(=O)(=O)c2ccc(Cl)cc2)N2C[C@H](c3ccccc3)C(c3ccc(F)cc3)=N2)CC1 [Compound 163, (S,E)-N′-((4-chlorophenyl)sulfonyl)-3-(4-fluorophenyl)-N-(2-((4-methylpiperazin-1-yl)sulfonyl)ethyl)-4-phenyl-4,5-dihydro-1H-pyrazole-1-carboximidamide]
[1]
  IC50: 100 to 500 nM
[2]
  IC50: < 100 nM

## O=S(=O)(/N=C(\NCCS(=O)(=O)N1CCNCC1)N1C[C@H](c2ccccc2)C(c2ccc(Cl)cc2)=N1)c1ccc(Cl)cc1 [Compound 159, (S,E)-3-(4-chlorophenyl)-N′-((4-chlorophenyl)sulfonyl)-4-phenyl-N-(2-(piperazin-1-ylsulfonyl)ethyl)-4,5-dihydro-1H-pyrazole-1-carboximidamide]
[1]
  IC50: < 100 nM
[2]
  IC50: < 100 nM

## NS(=O)(=O)CCCCN/C(=N\S(=O)(=O)c1ccc(Cl)cc1)N1C[C@H](c2ccccc2)C(c2ccc(Cl)cc2)=N1 [Compound 99, (S,E)-3-(4-chlorophenyl)-N′-((4-chlorophenyl)sulfonyl)-4-phenyl-N-(4-sulfamoylbutyl)-4,5-dihydro-1H-pyrazole-1-carboximidamide]
[1]
  IC50: > 500 nM
[2]
  IC50: > 500 nM

## C#Cc1ccccc1S(=O)(=O)N=C(NCCS(N)(=O)=O)N1C[C@H](c2ccccc2)C(c2ccc(Cl)cc2)=N1 [Compound 33, (S)-3-(4-chlorophenyl)-N′-((2-ethynylphenyl)sulfonyl)-4-phenyl-N-(2-sulfamoylethyl)-4,5-dihydro-1H-pyrazole-1-carboximidamide]
[2]
  IC50: 100 to 500 nM

## NS(=O)(=O)O[C@H]1C[C@@H](N/C(=N\S(=O)(=O)c2ccc(C(F)(F)F)cc2)N2C[C@H](c3ccccc3)C(c3ccc(Cl)cc3)=N2)C1 [Compound 227, (1R,3s)-3-((S,E)-3-(4-chlorophenyl)-4-phenyl-N′-((4-(trifluoromethyl)phenyl)sulfonyl)-4,5-dihydro-1H-pyrazole-1-carboximidamido)cyclobutyl sulfamate]
[2]
  IC50: 100 to 500 nM
